Test results published in patent US7387895B2, “Monoclonal antibody specific for PPAR gamma, hydridoma cell line producing the same, and method for detecting regulator related to diseases, including inflammation, cancer and metabolic diseases, using the same” (Korea Research Institute of Bioscience and Biotechnology, priority 2003, dated 2008).
Entries after “also recorded” stand apart in the source; their conditions may differ.

How the values were obtained:
[1] = biological target: T1, PPAR gamma (Homo sapiens, UniProt P37231); details: components of oxLDL; cited from earlier work
T1 sequence (P37231 1-505): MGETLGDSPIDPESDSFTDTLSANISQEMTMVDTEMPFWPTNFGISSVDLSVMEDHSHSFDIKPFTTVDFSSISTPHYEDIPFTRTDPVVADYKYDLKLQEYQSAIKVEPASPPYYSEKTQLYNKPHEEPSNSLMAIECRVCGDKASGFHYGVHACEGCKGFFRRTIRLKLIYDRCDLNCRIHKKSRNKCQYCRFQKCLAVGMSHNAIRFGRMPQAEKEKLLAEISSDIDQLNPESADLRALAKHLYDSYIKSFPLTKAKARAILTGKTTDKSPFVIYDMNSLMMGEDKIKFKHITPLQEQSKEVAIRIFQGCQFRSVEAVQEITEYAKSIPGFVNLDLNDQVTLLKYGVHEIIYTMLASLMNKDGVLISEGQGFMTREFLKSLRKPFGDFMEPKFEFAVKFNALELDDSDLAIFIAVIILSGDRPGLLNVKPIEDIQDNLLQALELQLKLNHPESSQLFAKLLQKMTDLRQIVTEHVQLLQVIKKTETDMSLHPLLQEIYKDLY

[2] = test system: cytokine production; details: cited from earlier work
[3] = test system: NF-κB; details: cited from earlier work
[4] = biological target: T2, binding between SRC-1 and PPAR gamma2 proteins (Homo sapiens, UniProt P37231); experiment: ELISA of binding between SRC-1 and PPAR gamma2; type: biochemical; details: 8 μg/ml SRC-1 coated, GST-PPAR gamma2 lysate diluted 64-fold, ligand at different concentrations, FIG. 7B
T2 construct: made in house; host or cells: E. coli (pGEX4T-1/PPARgamma2, KCTC 10190BP; pET28a/SRC-1, KCTC 10191BP)
T2 sequence (Q15788 whole entry partner, one chain of several): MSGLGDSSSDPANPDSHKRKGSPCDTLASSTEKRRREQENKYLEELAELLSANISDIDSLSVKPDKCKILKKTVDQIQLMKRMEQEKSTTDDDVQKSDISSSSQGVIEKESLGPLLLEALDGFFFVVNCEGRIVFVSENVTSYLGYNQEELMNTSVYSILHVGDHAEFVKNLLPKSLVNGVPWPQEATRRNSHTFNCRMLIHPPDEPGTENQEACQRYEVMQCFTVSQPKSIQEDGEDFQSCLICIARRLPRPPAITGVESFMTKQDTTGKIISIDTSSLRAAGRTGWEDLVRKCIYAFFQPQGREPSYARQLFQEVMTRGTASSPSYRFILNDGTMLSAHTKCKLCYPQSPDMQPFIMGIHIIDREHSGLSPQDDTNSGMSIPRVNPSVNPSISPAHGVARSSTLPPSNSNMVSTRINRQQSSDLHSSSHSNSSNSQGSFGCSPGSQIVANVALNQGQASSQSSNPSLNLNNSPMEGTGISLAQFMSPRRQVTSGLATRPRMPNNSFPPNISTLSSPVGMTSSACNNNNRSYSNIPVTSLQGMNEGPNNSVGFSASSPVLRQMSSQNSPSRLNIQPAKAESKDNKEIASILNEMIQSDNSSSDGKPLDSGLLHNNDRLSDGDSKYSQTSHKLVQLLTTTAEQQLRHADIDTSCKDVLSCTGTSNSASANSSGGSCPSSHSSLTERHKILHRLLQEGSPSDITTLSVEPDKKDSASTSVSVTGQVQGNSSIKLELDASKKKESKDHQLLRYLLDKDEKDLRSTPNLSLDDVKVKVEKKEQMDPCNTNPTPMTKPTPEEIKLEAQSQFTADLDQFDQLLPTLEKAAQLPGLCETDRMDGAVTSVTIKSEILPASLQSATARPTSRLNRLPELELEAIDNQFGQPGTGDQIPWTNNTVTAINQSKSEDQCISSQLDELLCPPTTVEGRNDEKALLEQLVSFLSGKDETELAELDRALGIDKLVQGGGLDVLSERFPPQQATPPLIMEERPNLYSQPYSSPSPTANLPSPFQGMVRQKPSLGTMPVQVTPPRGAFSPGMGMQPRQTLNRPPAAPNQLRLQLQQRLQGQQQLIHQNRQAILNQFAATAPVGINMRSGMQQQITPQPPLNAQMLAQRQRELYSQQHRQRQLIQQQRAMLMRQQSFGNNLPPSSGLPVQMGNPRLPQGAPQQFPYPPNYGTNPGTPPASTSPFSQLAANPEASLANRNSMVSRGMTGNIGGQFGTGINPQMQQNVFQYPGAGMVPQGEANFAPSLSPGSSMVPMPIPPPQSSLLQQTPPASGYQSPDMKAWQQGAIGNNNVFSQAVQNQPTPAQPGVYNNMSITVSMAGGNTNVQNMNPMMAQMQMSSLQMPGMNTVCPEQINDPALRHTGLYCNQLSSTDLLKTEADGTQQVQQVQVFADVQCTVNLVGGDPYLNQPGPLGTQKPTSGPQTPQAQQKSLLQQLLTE
Protocol: To examine the effect of PPAR gamma2 protein concentration on the binding between SRC-1 and PPAR gamma2 proteins, the following test was conducted. […] Also, this procedure was repeated three times, and a GST-fused protein which had not been bound to SRC-1 protein was used as a control group. […] Furthermore, to examine the effect of PPAR gamma2 ligand concentration on the binding between SRC-1 and PPAR gamma2 proteins, the following test was conducted. 8 μg/ml SRC-1 was coated on a plate, and E. coli lysate was diluted 64-fold and added to the plate. Then, indomethacin, a PPAR gamma2 ligand, was added to the plate at a different concentration.
His-SRC-1 protein was diluted with 0.1 M sodium carbonate buffer (pH 9.6) to a concentration of about 800 ng/well. 100 μl of the protein dilution was loaded into each well of an ELISA plate, and coated on the plate overnight at 4° C. The coated plate was washed three times with PBS (containing 0.05% Tween®-20), and added with 3% skimmed-PBST solution and left to stand overnight at 4° C. or for 2 hours at room temperature. A soluble fraction of GST-fused PPAR gamma2 was diluted […], and 50 μl of the dilution was added to each well of the plate. Indomethacin, a PPAR gamma2 agonist, was added at 1 μM, 10 μM and 100 μM. […]

Structure (SMILES): CCCCC/C=C\C=C\C(O)CCCCCCCC(=O)O (stereo not drawn) [9-HODE]
- PPAR gamma agonist activity [1]: PPAR gamma agonists

Structure (SMILES): CCCCCC(O)/C=C/C=C\CCCCCCCC(=O)O (stereo not drawn) [13-HODE]
- PPAR gamma agonist activity [1]: PPAR gamma agonists

Structure (SMILES): CCCCC/C=C/C=C1/C(=O)C=C[C@@H]1C/C=C\CCCC(=O)O [15d-PGJ2]
- cytokine production in embryonic stem cells ([2]; PPAR gamma+/+, +/- or -/- embryonic stem cells): inhibited cytokine production
- cytokine production of monocytes or macrophages in vitro ([2]; monocytes or macrophages): the most powerful inhibitor
- NF-κB activity [3]: inhibit NF-κB activity

Structure (SMILES): COc1ccc2c(c1)c(CC(=O)O)c(C)n2C(=O)c1ccc(Cl)cc1 [indomethacin]
- binding between SRC-1 and PPAR gamma2 [4]: dependent on the concentration of indomethacin; also recorded: increased
